What was measured:
[1] = tested on: primary KYYF pancreatic tumor cells; test: Relative mRNA levels of lineage genes and SOX2 in KYYF pancreatic tumor cells; format: cell-based, mouse; settings: YAP+ primary pancreatic tumor cells, 0.5, 2, 5 μM for 3 days versus DMSO
Excerpt: (§1) (*P<0.05; **P<0.005; ***P<0.0005; ns: not significant; error bars indicate standard deviation).
(§2) Quantitative methylation-specific PCR (qMSP) was used to confirm that the promoters of acinar lineage genes Ptf1a and Bhlha15 became heavily methylated in KF pancreatic tumors in contrast to wild type (WT) pancreata, which was partially reversed in KYYF pancreata after TAM treatment (FIG. 5L). To directly assess the effects of DNA de-methylation on the expression of pancreatic lineage genes, YAP^+ primary pancreatic tumor cells were treated with vehicle control or DNA methylation inhibitor 5-azacytidine (5-Aza). […] The levels of global DNA methylation in primary KYYF pancreatic tumor cells were measured following treatment with Ad-GFP or Ad-CRE, and it was confirmed that YAP ablation induced a rapid and significant decline in global DNA methylation, which partially recovered over time (FIG. 5B).

[2] = tested on: primary KYYF pancreatic tumor cells; test: Percent of global DNA methylation in KYYF cells; format: cell-based, mouse; settings: 5 μM, 3 days versus DMSO
Excerpt: as §1, §2

[3] = tested on: SOX2, SOX5, and TWIST2 in primary PDAC cell lines; test: Western blot of pluripotent transcription factors in primary PDAC lines; format: cell-based; settings: after 24 hours, compared to DMSO control
Method: Western blot assay with indicated antibodies in four different primary PDAC lines expressing variable levels of SOX2/SOX5/TWIST2 after 24 hr treatment with DMSO (−) or Miv (+) is shown. Multiple primary PDAC cell lines were treated with BET inhibitor mivebresib.

[4] = tested on: mT4, 08031-9, MD-MB-231, 786-O and HepG2 cells; test: FACS analysis of relative ratios of control (RFP-) and YAP/TAZ-depleted (shY/T, RFP+) cancer cells in co-culture; format: cell-based; settings: compared to vehicle, pancreatic, schwannoma, breast, kidney and liver cancer lines
Method: FACS analysis of the relative ratios of control (Ctrl, RFP-) or YAP/TAZ-depleted (shY/T, RFP^+) cancer cells after co-culturing in the presence of vehicle (Veh) or BE inhibitor mivebresib (Miv) was performed (n=3). […] The YAP/TAZ hairpin RNAs were fused with fluorescent protein RFP. […] (FIG. 8).

Compound | expression of acinar and endocrine lineage genes and SOX2 [1] | global DNA methylation [2] | expression of pluripotent transcription factors SOX2, SOX5, and TWIST2 [3] | percentage of control (RFP-) relative to shY/T (RFP+) cancer cells [4]
Nc1ncn([C@@H]2O[C@H](CO)[C@@H](O)[C@H]2O)c(=O)n1 [5-Aza, 5-azacytidine] | dose-dependent upregulation | global DNA de-methylation | – | –
CCS(=O)(=O)Nc1ccc(Oc2ccc(F)cc2F)c(-c2cn(C)c(=O)c3[nH]ccc23)c1 [mivebresib] | – | – | selectively reduced | greater percentage of control (RFP^−) cancer cells relative to shY/T (RFP^+) cancer cells

Reference: US20220280590A1, “USE OF INHIBITORS OF YAP AND SOX2 FOR THE TREATMENT OF CANCER” (Georgetown University, priority 2019, published 2022)
